Tests used:
B. Anthracis = experiment: microbe, parasite or virus in culture; format: cell-based; conditions: for inhibition at 10 µM / inhibition at 30 µM / inhibition at 3 µM: Bacillus anthracis; for inhibition at 10 µM: read-out: B. Anthracis 10 μM (growth inhibition); for inhibition at 30 µM: read-out: B. Anthracis 30 μM (growth inhibition); for inhibition at 3 µM: read-out: B. Anthracis 3 μM (growth inhibition)
S. MRSA = experiment: microbe, parasite or virus in culture; format: cell-based; conditions: for inhibition at 10 µM / inhibition at 30 µM / inhibition at 3 µM: Staphylococcus aureus, MRSA; for inhibition at 10 µM: read-out: S. MRSA 10 μM (growth inhibition); for inhibition at 30 µM: read-out: S. MRSA 30 μM (growth inhibition); for inhibition at 3 µM: read-out: S. MRSA 3 μM (growth inhibition)

Row | Structure (SMILES) | inhibition at 10 µM (B. Anthracis) [%] | inhibition at 30 µM (B. Anthracis; 30 μM) [%] | inhibition at 10 µM (S. MRSA) [%] | inhibition at 30 µM (S. MRSA) [%] | inhibition at 3 µM (B. Anthracis) [%] | inhibition at 3 µM (S. MRSA) [%] | B. Anthracis 10 μM (growth inhibition) (B. Anthracis) | S. MRSA 10 μM (growth inhibition) (S. MRSA) | S. MRSA 30 μM (growth inhibition) (S. MRSA) | B. Anthracis 30 μM (growth inhibition) (B. Anthracis; 30 μM)
1 | COc1ccc(N2C(=O)/C(=C/c3ccc(Br)s3)C(=O)NC2=S)cc1 [Cmpd 11] | 16.2 | 47.3 | 14.8 | 42.6 |  |  |  |  |  | 
2 | O=C(O)C(Cc1ccccc1)N1C(=O)/C(=C\c2ccc(-c3ccc(I)cc3)o2)NC1=S (centres unmarked) [Cmpd 45] | 97.4 | 96.4 | 88.2 | 92.7 | 49.2 | -1.84 |  |  |  | 
3 | COc1ccc(-c2nc(N3CCOCC3)c3sc(=O)n(-c4ccccc4)c3n2)cc1OC [Cmpd 8] | 5.32 | 35.5 | -8.82 | 1.47 |  |  |  |  |  | 
4 | O=C1NC(=S)NC(=O)C1=Cc1ccc(-c2ccc(F)cc2)o1 [Cmpd 20] | 17.1 | 28.7 | 25.1 | 56 |  |  |  |  |  | 
5 | O=C1NC(=O)C(=Cc2ccc(Br)s2)C(=O)N1 [Cmpd 18] | 0 | 0 | 15.2 | 18.4 | 0 | 13.6 |  |  |  | 
6 | O=C1NC(=S)NC(=O)C1=Cc1ccc(Br)s1 [Cmpd 1] | -12.4 | 8.74 | 6.62 | 22.1 |  |  |  |  |  | 
7 | O=C1NC(=S)S/C1=C/c1ccc(-c2ccc3c(c2)C(=O)NC3=O)o1 [Cmpd 3] | 13.7 | 87.5 | -0.59 | 61.2 |  |  |  |  |  | 
8 | O=C(O)C(Cc1ccccc1)N1C(=O)/C(=C\c2ccc(-c3ccc(OC(F)(F)F)cc3)o2)NC1=S (centres unmarked) [Cmpd 43] | 96.7 | 96.6 | -6.26 | 95.2 | 8.01 | -1.32 |  |  |  | 
9 | O=C(O)C(Cc1ccccc1)N1C(=O)/C(=C\c2ccc(Br)s2)NC1=S (centres unmarked) [Cmpd 37] |  | 0 |  | -6.27 |  |  |  |  |  | 
10 | O=C1Nc2ccc(Br)cc2/C1=C1/SC(=S)N(C(Cc2ccccc2)C(=O)O)C1=O (centres unmarked) [Cmpd 13] |  | 90.1 |  |  |  |  | 10.27 | −0.58 | 30.29 | 
11 | O=C1NC(=S)NC(=O)C1=Cc1ccc(Br)cc1 [Cmpd 16] | 0 | 0 | 12 | 8.76 | 0 | 13.6 |  |  |  | 
12 | O=C(O)C(Cc1ccccc1)N1C(=O)/C(=C\c2ccc(-c3ccc(Br)c(Cl)c3)s2)NC1=S (centres unmarked) [Cmpd 41] | 8.15 | 94.5 | -7.45 | -0.89 | 19.5 |  |  |  |  | 
13 | O=C(O)C(Cc1ccccc1)N1C(=O)/C(=C\c2ccc(-c3ccc(Br)cc3)o2)NC1=S (centres unmarked) [Cmpd 39] | 98.8 | 98.8 | 92.5 | 95.4 | 72.6 | -9.55 |  |  |  | 
14 | O=C(O)CCCCCN1C(=O)/C(=C2/C(=O)Nc3ccc(Br)cc32)SC1=S [Cmpd 4] | 52.3 | 91.2 | 41.6 | 69.4 |  |  |  |  |  | 
15 | O=C1Nc2ccc(Br)cc2/C1=C1/SC(=S)N(C(Cc2ccccc2)C(=O)O)C1=O (centres unmarked) [Cmpd 22] |  |  |  |  |  |  | 83.27 | 10.74 | 86.76 | 90.11
16 | O=C(O)C(Cc1ccccc1)N1C(=O)/C(=C\c2ccc(-c3ccc(Cl)c(Cl)c3)s2)NC1=S (centres unmarked) [Cmpd 50] | 108 | 94.2 | 14.3 | 35.6 | 1.03 | -14.6 |  |  |  | 
17 | COc1ccc(-c2ccc(/C=C3/NC(=S)N(C(Cc4ccccc4)C(=O)O)C3=O)s2)cc1 (centres unmarked) [Cmpd 33] | 0 | 100 | -13.2 | 18.5 | -3.85 | -2.94 |  |  |  | 
18 | O=C1NC(=O)N(Cc2ccc(F)cc2)C(=O)/C1=C/c1ccc(Br)s1 [Cmpd 10] | 10.3 | 68.2 | 14.8 | 62.2 |  |  |  |  |  | 
19 | O=C1NC(=S)N(c2cccc(Cl)c2)C(=O)/C1=C/c1ccc(-c2cc(C(=O)O)ccc2Cl)o1 [Cmpd 25] | -3.09 | -3.09 | -4.41 | -5.15 | -10.8 | -2.21 |  |  |  | 
20 | O=C1NC(=S)NC(=O)C1=Cc1ccc(-c2ccc(Br)c(Cl)c2)o1 [Cmpd 9] | 28 | 88.4 | 19 | -4.22 |  |  |  |  |  | 
